Results as given in publication PMC8275550, “Developmental Neurotoxicity of Fipronil and Rotenone on a Human Neuronal In Vitro Test System” (Neurotoxicity Research, 2021).
“Also recorded” adds a separate entry of the source. Like-named read-outs stand apart in the source and are kept apart here.

Legend:
NT2 neurons = experiment: cells; type: cell-based, human; settings: for Effect on neurite outgrowth, endpoint specific control compounds: concentration-response curves, supplementary Fig. 1
Source text: Two photographs/well at × 20 magnification were taken.

NT2 precursor cells [1] = settings: 100 nM cytochalasin D, 44 h, without affecting viability; ref Stern et al. [2014]; cited from earlier work
[2] = cited from earlier work
in vitro = settings: human
Protocol: (§3) Dispersed cells were seeded into two identical poly-D-lysine (10 µg/ml) coated 96-well plates (Corning Costar, Kaiserslautern, Germany) at a density of 10,000 cells per well. Cultures were exposed to up to seven different concentrations of a test compound in DMEM/F12 (six technical replicates per concentration) for 24 h. One plate was immediately fixed in 4% paraformaldehyde in PBS (PFA) for 15 min. After 24 h, while a resazurin reduction assay (2 h) was performed on the other plate. […] Fixed cells were washed in PBS containing 0.1% Triton X100 (PBS-T) and immunolabeled for ß-tubulin type III (monoclonal anti ßtubIII, 1:20,000) using a red fluorescent secondary antibody (goat anti mouse-alexaFluor568, Invitrogen, Germany, 1:250) and DAPI (0.1 µg/ml) as nuclear counterstain. Cells were examined on a Zeiss Axiovert 200 inverted microscope equipped with a CoolSnap camera (Photometrics, Tucson, AZ, USA) and MetaMorph software (Molecular Devices, Sunnyvale, CA, USA), or a Zeiss Axiocam50 mono and Zeiss ZENlite 2.6 blue edition software. Two photographs/well at × 20 magnification were taken. Lengths of all neurites in the field of view were measured in ImageJ (http://imagej.nih.gov/ij) using the ‚segmented line ‘ tool (Fig. 1c) and divided by the number of ß-tubulin III-positive cells.

[3] = Resazurin reduction viability assay in the cell migration assay; type: cell-based; settings: human
Protocol: (§1) As established before (Stern et al. [2014]), NT2 precursor cells were seeded in 96-mm bacteriological grade Petri dishes (Greiner, Hamburg, Germany) at a density of 4 × 10^6–5 × 10^6 cells per dish. Within 24 h, cells formed free-floating spherical aggregates of 300–800 µm diameter. On the first day, 10 ml of culture medium was added to each Petri dish. On the next days, medium with 10 μM retinoic acid (RA) was added and changed every 2–3 days by transferring the cell suspension to centrifuge tubes and centrifuge at 200 × g for 7 min. After 9 days in culture, aggregates were gently resuspended using a Pasteur pipette, and seeded at 60,000 cells per well into black 96-well plates with flat transparent bottom (Nunc). Plates were lined with poly-D-lysine and laminin (10 µg/ml each), equipped with silicone stoppers from the Oris Cell Migration Assay (AMS Biotechnology, Abingdon, UK). Cells were allowed to adhere overnight. On the next day, stoppers were pulled leaving a monolayer of cells with a circular hole of 2-mm diameter. […] After one wash in PBS, cells were fixed for 15 min in PFA, washed twice in PBS-T and stained with DAPI (0.5 µg/ml) for 5 min, followed by two washes in PBS. A black 96-hole plastic mask leaving a central circular area of 2-mm diameter for each well was clipped to the bottom of the plate. This allows viewing only those cells that had migrated into the free areas left by the silicone stoppers during seeding (Fig. 1b). Migration was quantified by taking two photographs of each well and measuring the distance of the migration front from the black margin of the mask in using ImageJ. Occasional asymmetries caused by slight inaccuracies of silicone stopper placement were compensated by averaging measurements in four quadrants per well. […] Average null-migration values were subtracted from migrated distance before evaluation.

NT2 precursor cells [4] = experiment: cells; type: cell-based, human; settings: for IC50: read-out: IC50 migration (spec. EP); for Rescue by NAC, migration / Rescue by Y-27632, migration: yes = at least one concentration of rescuing compound with specific endpoint significantly less affected
Protocol: as §1

[5] = Resazurin reduction viability assay in the neuronal differentiation assay; type: cell-based, human; settings: human
Protocol: (§2) As established in our previous study (Stern et al. [2014]), cells were seeded into 96-well plates (Corning Costar, Kaiserslautern, Germany) at 80,000 cells per well and incubated in DMEM/F12 with 10 µM retinoic acid (RA) for 4 days (one media change). Cells were incubated for further 5 days (one media change) in media containing 10 µM RA and up to seven concentrations of a test compound. On day 9 (5-day exposition), cell viability was measured using a resazurin reduction assay (Trinova Biochem, Giessen, Germany). Subsequently, cells were fixed for 15 min in PFA and immunolabeled for ß-tubulin type III as above (Fig. 1a). For control purposes, photographs were taken at × 20 magnification as above. Neuronal differentiation was determined by measuring red fluorescence (excitation 568 nm, emission 603 nm) in a multiwell-plate reader (Infinite 200, TECAN, Germany). As a confirmation of the viability data, cell number was also quantified by measuring DAPI fluorescence (excitation 350 nm, emission 488 nm).

[6] = system: differentiating NT2 cells; experiment: cells; type: cell-based, human; settings: for IC50: NT2, 120 h, read-out: IC50 neuronal differentiation (ß-tub III, spec. EP)
Protocol: as §2

[7] = human
Protocol: as §3

[8] = system: NT2 cells treated for 2 weeks with retinoic acid (2wkRA); settings: […]
Protocol: as §3

neurospheres = system: neurospheres; set-up: method as in Ishido and Suzuki ([2010]); settings: general cytotoxicity not tested; ref Ishido and Suzuki ([2010]); read-out: IC50 cell migration out of neurospheres; cited from earlier work
[9] = system: differentiating NT2 cells; experiment: Resazurin reduction viability assay in the neuronal differentiation assay; type: cell-based, human; settings: differentiation assay
Protocol: as §2

[10] = system: differentiating NT2 cells; set-up: method as in Stern et al. [2014]; settings: 333 µM sodium valproate; ref Stern et al. [2014]; cited from earlier work
[11] = system: differentiating NT2 cells; settings: 333 µM sodium valproate; ref Stern et al. [2014]; cited from earlier work
[12] = migration assay, 44 h exposure, > = highest tested concentration, read-out: IC50 general cytotoxicity (resazurin), unspec. EP
[13] = yes = at least one concentration of rescuing compound with specific endpoint significantly less affected
[14] = co-applied with 2.4 µM rotenone
[15] = yes = at least one concentration of rescuing compound with specific endpoint significantly less affected than by test compound alone

## COc1cc2c(c(OC)c1OC)-c1ccc(OC)c(=O)cc1[C@@H](NC(C)=O)CC2 [Colchicine]
NT2 neurons
  Effect on neurite outgrowth, endpoint specific control compounds: specifically inhibits neurite outgrowth

## C=C1[C@@H](C)[C@H]2[C@H](Cc3ccccc3)NC(=O)[C@]23[C@H](OC(C)=O)/C=C/[C@@](C)(O)C(=O)[C@@H](C)C/C=C/[C@H]3[C@@H]1O [Cytochalasin D, [(1R,2R,3E,5R,7S,9E,11R,12S,14S,15R,16S)-16-Benzyl-5,12-dihydroxy-5,7,14-trimethyl-13-methylidene-6,18-dioxo-17-azatricyclo[9.7.0.0^1,15]octadeca-3,9-dien-2-yl] acetate]
NT2 neurons; Homo sapiens, Neuron, 100 nM cytochalasin D, read-out: Neurite outgrowth (% of control), endpoint-specific control
  activity at 0.1 µM: < 25%
NT2 neurons
  Effect on neurite outgrowth, endpoint specific control compounds: specifically inhibits neurite outgrowth
NT2 precursor cells [1]
  Effect on cell motility, null-migration reference: completely inhibits cell motility

## N#Cc1nn(-c2c(Cl)cc(C(F)(F)F)cc2Cl)c(N)c1S(=O)(=O)C(F)(F)F [Fipronil sulfone, 5-Amino-1-[2,6-dichloro-4-(trifluoromethyl)phenyl]-4-(trifluoromethylsulfonyl)pyrazole-3-carbonitrile]
[2]; ref Herin et al. [2011]
  Blood concentration in workers with occupational fipronil exposure: up to 0.1 µM
[2]; urban population of South Korea, ref Kim et al. [2019]
  Concentration measured in umbilical cord blood: up to 1.1 nM
In vitro
  IC50: 43 µM
[3]; 15.63 µM fipronil sulfone, read-out: Viability (% of control)
  viability: 85%
[3]; [12]
  IC50: > 62.5 µM
NT2 precursor cells [4]; 44 h exposure
  Concentrations with significant differences between viability and migration: ≥ 15.63 µM
NT2 precursor cells [4]; Homo sapiens, 15.63 µM fipronil sulfone, read-out: Migration (% of control)
  activity at 15.63 µM: < 40%
NT2 precursor cells [4]; Homo sapiens, 44 h exposure
  IC50: 14.2 µM
NT2 precursor cells [4]
  Rescue by NAC, migration: yes
  Rescue by Y-27632, migration: Yes
NT2 neurons; Homo sapiens, 24 h exposure, total neurite length/neuron, normalized to solvent control, read-out: IC50 neurite outgrowth (spec. EP)
  IC50: 34 µM
[5]; 7.81 µM fipronil sulfone, read-out: General viability (% of control)
  viability: ~100%
[5]; differentiation assay, 5 days exposure, read-out: IC50 general cytotoxicity (resazurin), unspec. EP
  IC50: 15.5 µM
[6]; Homo sapiens, 5 days exposure
  IC50: 9.77 µM
[6]; Homo sapiens, NT2, 7.81 µM fipronil sulfone, read-out: Neuronal differentiation (% of control)
  activity at 7.81 µM: 70%
[6]; [13]
  Rescue by NAC, neuronal differentiation: no

## CC(=O)N[C@@H](CS)C(=O)O [NAC, (2R)-2-Acetamido-3-sulfanylpropanoic acid]
NT2 precursor cells [4]; Homo sapiens, all three tested endpoints as worded in abstract, read-out: EC 50 ameliorating the inhibitory effects of fipronil on all three tested endpoints (abstract)
  EC50: 84 to 164 µM
NT2 precursor cells [4]; Homo sapiens, co-applied with 15 µM fipronil sulfone, only slight alleviation, read-out: EC50 alleviation of fipronil sulfone-inhibited migration (NAC)
  EC50: 84.6 µM
NT2 precursor cells [4]; Homo sapiens, co-applied with 50 µM fipronil, read-out: EC50 alleviation of fipronil-inhibited migration
  EC50: 161 µM
NT2 precursor cells [4]; co-applied with 122 nM rotenone, any concentration
  Effect on rotenone inhibition of migration: could not be alleviated
NT2 precursor cells [4]; co-applied with 15 µM fipronil sulfone
  Effect on fipronil sulfone inhibition of migration: only slightly alleviated
NT2 precursor cells [4]; co-applied with 50 µM fipronil
  Effect on fipronil-induced inhibition of migration: could completely counteract
NT2 neurons; [14]
  Effect on rotenone-induced NT2 neurite outgrowth inhibition: could not change
[6]; 370 µM NAC and higher, with 15 µM fipronil
  Effect on fipronil inhibition of NT2 differentiation: completely negated
[6]; Homo sapiens, NT2, co-applied with 15 µM fipronil, read-out: EC50 rescue of fipronil-inhibited neuronal differentiation
  EC50: 94.7 µM
[6]; co-applied with 11 nM rotenone, any concentration
  Effect on rotenone inhibition of ß-tubulin III-immunofluorescence: could not alleviate

## C=C(C)[C@H]1Cc2c(ccc3c2O[C@@H]2COc4cc(OC)c(OC)cc4[C@@H]2C3=O)O1 [Rotenone, (1S,6R,13S)-16,17-Dimethoxy-6-prop-1-en-2-yl-2,7,20-trioxapentacyclo[11.8.0.0^3,11.0^4,8.0^14,19]henicosa-3(11),4(8),9,14,16,18-hexaen-12-one]
[3]; highest tested rotenone concentration (333 nM), read-out: General viability (% of control)
  viability at 44 h, 0.333 µM: > 70%
[3]; [12]
  IC50 at 44 h: > 0.333 µM
NT2 precursor cells [4]; 44 h exposure
  Concentration at which a significant reduction of migration could already be observed: 4.12 nM
NT2 precursor cells [4]; Homo sapiens, 44 h
  IC50: 0.051 µM
NT2 precursor cells [4]
  Rescue by NAC, migration: no
  Rescue by Y-27632, migration: Yes
[7]
  IC50 at 24 h: > 10 µM
[7]; General cell viability (% of control), highest tested concentration, 10 µM rotenone
  viability at 24 h, 10 µM: ~80%
[8]
  Highest non-cytotoxic concentration (viability > 90%): 123 nM
neurospheres
  IC50: ~0.2 µM
NT2 neurons; Homo sapiens, Neuron, 24 h, read-out: IC50 neurite outgrowth (spec. EP)
  IC50: 0.55 µM
NT2 neurons; Homo sapiens, Neuron, 24 h, read-out: IC50 spec. EP (neurite outgrowth)
  IC50: 0.55 µM
NT2 neurons; Homo sapiens, Neuron, read-out: Neurite outgrowth (% of control)
  activity at 0.123 µM: < 75%
NT2 neurons; [15]
  Rescue by NAC, neurite outgrowth: no
  Rescue by Y-27632, neurite outgrowth: Yes
[5]; differentiation assay, 5 days exposure, > = highest tested concentration, read-out: IC50 general cytotoxicity (resazurin), unspec. EP
  IC50 at 5 days: > 0.1 µM
[5]; highest tested rotenone concentration (100 nM), read-out: General viability (% of control)
  viability at 5 days, 0.1 µM: 72%
[9]
  Highest non-cytotoxic concentration (viability > 90%): 1.2 nM
[6]; 1.2 nM rotenone, highest non-cytotoxic concentration
  ß-tubulin III-expression (% of control): below 75%
[6]; Homo sapiens
  IC50: 0.00518 µM
[6]; [13]
  Rescue by NAC, neuronal differentiation: no
  Rescue by Y-27632, neuronal differentiation: No

## CCCC(CCC)C(=O)[O-].[Na+] [Sodium valproate, Sodium; 2-propylpentanoate]
[10]
  General viability (% of control), endpoint-specific control: above 85%
[11]
  Neuronal differentiation (% of control), endpoint-specific control: less than 50%

## C[C@@H](N)[C@H]1CC[C@H](C(=O)Nc2ccncc2)CC1 [Y-27632, 4-[(1R)-1-Aminoethyl]-N-pyridin-4-ylcyclohexane-1-carboxamide]
NT2 precursor cells [4]; Homo sapiens, 50 µM Y-27632, without affecting general viability, read-out: Precursor cell migration (% of control), endpoint-specific control
  activity at 50 µM: > 125%
NT2 precursor cells [4]; Homo sapiens, co-applied with 122 nM rotenone, read-out: EC50 alleviation of rotenone-inhibited migration
  EC50: 8.3 µM
NT2 precursor cells [4]; Homo sapiens, co-applied with 15 µM fipronil sulfone, read-out: EC50 alleviation of fipronil sulfone-inhibited migration (Y-27632)
  EC50: 4.22 µM
NT2 precursor cells [4]; co-applied with 50 µM fipronil
  Effect on fipronil-induced inhibition of migration: could not alleviate; also recorded: could not be alleviated
NT2 neurons; Homo sapiens, Neuron, 50 µM Y-27632, without affecting general viability, read-out: Neurite outgrowth (% of control), endpoint-specific control
  activity at 50 µM: > 125%
NT2 neurons; Homo sapiens, Neuron, co-applied with 2.4 µM rotenone, read-out: EC50 compensation of rotenone-inhibited neurite outgrowth
  EC50: 12.1 µM
NT2 neurons; [14]
  Effect on rotenone-induced NT2 neurite outgrowth inhibition: could alleviate

## CC(C)=CCC/C(C)=C/CC/C(C)=C/CC[C@]1(C)CCc2c(C)c(O)c(C)c(C)c2O1 [α-tocotrienol, (2R)-2,5,7,8-Tetramethyl-2-[(3E,7E)-4,8,12-trimethyltrideca-3,7,11-trienyl]-3,4-dihydrochromen-6-ol]
NT2 neurons; [14]
  Effect on rotenone-induced NT2 neurite outgrowth inhibition: could not change
